{
  "source": "paper PMC4116524",
  "about": "“A virtual screen identified C96 as a novel inhibitor of phosphatidylinositol 3-kinase that displays potent preclinical activity against multiple myeloma in vitro and in vivo” (Oncotarget, 2014)",
  "format_in_all_cases": "cell-based",
  "key": {"[1]": {"test_system": "AKT phosphorylation in LP1 and JJN3 cells", "assay": "IGF-1-stimulated AKT phosphorylation, immunoblotting (Figure 3A)", "details": "100 μM, 2 hrs, IGF-1 15 min", "method": "(§1) To elucidate this specificity, we first evaluated its effects on IGF-1R because IGF-1R as a receptor tyrosine kinase activates PI3K in the presence of IGF-1. To exclude the potential effects of C96 on IGF-1 signaling, LP1 and JJN3 cells were starved overnight followed by C96 or S14161 treatment for 2 hrs, and IGF-1 stimulation for 15 min. As expected, IGF-1 triggered AKT phosphorylation but it was suppressed by both C96 and the proven PI3K inhibitor S14161 without affecting total AKT expression (Figure 3A). […] Next, we evaluated other kinases including non-receptor kinase c-Src and a PI3K parallel kinase ERK which transduces external cellular signals. Both LP1 and JJN3 cells were treated with C96 at increasing concentrations that inhibited AKT and mTOR activation (Figure 2C).\n(§2) Figure 3 C96 inhibits AKT but not IGF-1R, ERK or c-Src kinase activation (A) LP1 and JJN3 cells were starved overnight, then treated with 100 (μM of C96 or S14161 for 2 hrs, followed by IGF-1 (100 ng/mL) for 15 min. After incubation, cells were harvested and the expression of p-AKT, p-IGF-1R, total AKT (T-AKT), and IGF-1R proteins were detected by immunoblotting. (B) LP1 and JJN3 were treated with C96 at indicated concentrations for 24 hrs followed by immunoblotting assay for the expression of p-Src, c-Src, p-ERK, and ERK. GAPDH was used as a loading control. […]"}, "[2]": {"test_system": "ERK phosphorylation in LP1 and JJN3 cells", "assay": "ERK phosphorylation, immunoblotting", "details": "increasing concentrations, 24 hrs", "method": "as §1, §2"}, "LP1, OPM2 and JJN3 cells": {"test_system": "LP1, OPM2 and JJN3 cells", "assay": "MM cell growth after starvation/IGF-1 stimulation (MTT)", "details": "0.5% FBS 12 hrs, IGF-1 100 ng/mL, 24 hrs", "excerpt": "Next, we evaluated the effects of C96 on MM cell growth by measuring viable cells after starvation/IGF-1 stimulation in the presence of C96. As shown in Supplemental Figure 2A, IGF-1 stimulated MM cell growth, but it was suppressed by C96. We also examined the effects of C96 on MM cell migration upon IGF-1 stimulation.\nMM cells were dispensed in 96-well plates at a density of 8×10^3 cells per well and treated with increasing concentrations of C96 for 72 hrs, and the growth inhibitory effect of C96 on MM cells was assessed by an MTT assay as reported previously. To show the effect of C96 on cell growth in the presence of growth factor IGF-1, MM cells were first maintained in IMDM media containing 0.5% FBS for 12 hrs, followed by C96 treatment alone or in combination with 100 ng/mL of IGF-1. Cells were then incubated for another 24 hrs, relative cell proliferation was analyzed by an MTT assay.\nSupplementary Figure S2: C96 inhibits MM cell proliferation and migration in the presence of IGF-1. […] Cells were then incubated for another 24 hr, cell number was analyzed using MTT staining. […] Cells were loaded onto the upper chamber of a transwell, and the lower chamber was filled with IMDM containing agonist IGF-1.After 6 hrs, cells migrating into the lower chamber were counted using a hemacytometer. […]"}, "[3]": {"test_system": "cleavage of PARP and caspase-3 in LP1, OPM2 and JJN3 cells", "assay": "Apoptotic signaling, immunoblotting of PARP and caspase-3", "details": "0-20 μM or 10 μM for 3-12 hrs, time- and concentration-dependent", "excerpt": "Because PI3K/AKT signaling is critical in modulating MM cell proliferation and survival, while interference with this pathway will lead to cell death and regression of MM tumors, we next asked whether C96 could induce MM cell apoptosis and inhibited MM cell proliferation. […] Next, we measured the induction of apoptosis by C96 in MM cell lines. Apoptotic cells are featured with inside-out expression of phosphatidylserine which is specifically identified by Annexin V, a cellular protein in the annexin group. Therefore, to measure the apoptotic level, C96-treated cells were stained with Annexin V-FITC and propidium iodide followed by flow cytometry analysis. […] For example, less apoptotic cells were induced by C96 in KMS11 cells in the Annexin V staining assay (Figure 5), the cleavage level of PARP in this cell line was also lower than that seen in other cell lines, such as OPM2 (Figure 6A). We next examined the apoptotic signaling pathway in the treatment with C96 with increasing exposure periods or concentrations. […]\nCells were treated with or without C96 for 24 hrs before being applied to lysate preparation in a lysis buffer (50 mM Tris-HCI, pH 7.4, 1% NP-40, 0.5% Na-deoxycholate, and 0.1% SDS, 150 mM NaCl, 2 mM EDTA, 2 mM Na3VO4, and 5 mM NaF). […] All immunoblotting signals were further analyzed with Quality One Quality One software (Bio-Rad, Berkeley, CA, USA)."}},
  "data": [
    {"smiles": "O=C1NC(=O)C(=CC=Cc2cccs2)C(=O)N1", "note": "[C96, 5-(3-(2-thienyl)-2-propen-1-ylidene)-2,4,6(1H,3H,5H)-pyrimidinetrione]", "values": [
      {"measurement": "AKT phosphorylation triggered by IGF-1", "setting": "[1]", "result": "suppressed"},
      {"measurement": "phosphorylation level of ERK", "setting": "[2]", "result": "did not decrease"},
      {"measurement": "IGF-1 stimulated MM cell growth", "setting": "LP1, OPM2 and JJN3 cells", "result": "suppressed"},
      {"measurement": "cleavage of PARP and caspase-3", "setting": "[3]", "result": "induced cleavage of PARP and caspase-3"}
    ]}
  ]
}
